# Assay: Solubility behavior of solid phenothiazine in acrylic acid (method 1b, NIR probe)
# Conditions: room temperature
# Experimental: Method for determining the solubility behavior of solid phenothiazine of different forms and particle size distributions
# Thereafter, at time intervals of from 1 to 5 mm, either a.) a sample of the dispersion was taken and filtered and the phenothiazine content was determined by UV spectroscopy or b.) the phenothiazine content was determined directly by means of an NIR probe which dipped into the dispersion of phenothiazine in acrylic acid (NIRVIS universal spectrometer from Buchi having a transmission probe with 1.5 mm slit width. In order to prevent disturbances by solid particles in the measuring slit, this was closed by means of a metal screen having a mesh size of 0.18 mm).
# For this purpose, in each case 1.33 g of the respective sample were added to 66 g of acrylic acid and measurements were carried out at intervals of one minute (Graph. 1).
smiles,measurement,value
"c1ccc2c(c1)Nc1ccccc1S2 [phenothiazine, 2,3,5,6-dibenzo-1,4-triazine]",maximum solubility of phenothiazine in acrylic acid,about 2.8 % (m/m)

# — US20040094749A1, “Method for producing a phenothiazine granulate with improved properties” (priority 2000, published 2004)
